Measured values: patent US11639446B2, “Cationic electrodeposition coating composition” (KANSAI PAINT CO., LTD., priority 2017, dated 2023)

Assay: Water solubility of catalyst

Compound | Water solubility of catalyst
Cn1cc[n+](C)c1/C([O-])=N\c1ccccc1 [modified imidazole C] | Insoluble
CCCC[n+]1ccn(C)c1C(=O)[O-] [modified imidazole B] | Soluble
Cn1cc[n+](C)c1C(=O)[O-] [modified imidazole A, 1,3-dimethylimidazolium-2-carboxylate] | Soluble
CCCCCCC[CH2][Sn](=[O])[CH2]CCCCCCC [Dioctyltin oxide, reference compound] | Insoluble
CCCCCCCC[n+]1ccn(C)c1/C([O-])=N\c1ccccc1 [modified imidazole E] | Insoluble

Next, values leading:

Water solubility of catalyst | Compound
Insoluble | CCCCCCCCn1cc[n+](CCCCCCCC)c1/C([O-])=N\c1ccccc1 [modified imidazole F]
Soluble | Cn1cc[n+](C)c1.[Cl-] [reference compound]
